{"source": "a compilation of properties of binary mixtures (doi:10.1016/j.molliq.2022.119221)", "assay": "xn = mol fraction of the nth substance listed", "details": "100 kPa"}
{"smiles": "OCCO", "note": "+ CCCC[n+]1ccn(C)c1.O=S(=O)([N-]S(=O)(=O)C(F)(F)F)C(F)(F)F", "values": [{"measurement": "viscosity", "setting": "293.15 K, x2 = 0.1", "result": 30.7, "unit": "mPa·s"}, {"measurement": "viscosity", "setting": "293.15 K, x2 = 0.2997", "result": 37.9, "unit": "mPa·s"}, {"measurement": "viscosity", "setting": "293.15 K, x2 = 0.4993", "result": 42, "unit": "mPa·s"}, {"measurement": "viscosity", "setting": "293.15 K, x2 = 0.6007", "result": 43, "unit": "mPa·s"}, {"measurement": "viscosity", "setting": "293.15 K, x2 = 0.7003", "result": 42, "unit": "mPa·s"}, {"measurement": "viscosity", "setting": "293.15 K, x2 = 0.7993", "result": 42.4, "unit": "mPa·s"}, {"measurement": "viscosity", "setting": "293.15 K, x2 = 0.9", "result": 48.7, "unit": "mPa·s"}, {"measurement": "viscosity", "setting": "298.15 K, x2 = 0.1", "result": 24.6, "unit": "mPa·s"}, {"measurement": "viscosity", "setting": "298.15 K, x2 = 0.2997", "result": 29.2, "unit": "mPa·s"}, {"measurement": "viscosity", "setting": "298.15 K, x2 = 0.4015", "result": 31.4, "unit": "mPa·s"}, {"measurement": "viscosity", "setting": "298.15 K, x2 = 0.4993", "result": 32.5, "unit": "mPa·s"}, {"measurement": "viscosity", "setting": "298.15 K, x2 = 0.6007", "result": 33.3, "unit": "mPa·s"}, {"measurement": "viscosity", "setting": "298.15 K, x2 = 0.7003", "result": 33.7, "unit": "mPa·s"}, {"measurement": "viscosity", "setting": "298.15 K, x2 = 0.7993", "result": 34.6, "unit": "mPa·s"}, {"measurement": "viscosity", "setting": "298.15 K, x2 = 0.9", "result": 39.8, "unit": "mPa·s"}, {"measurement": "viscosity", "setting": "303.15 K, x2 = 0.1", "result": 19.2, "unit": "mPa·s"}, {"measurement": "viscosity", "setting": "303.15 K, x2 = 0.2002", "result": 21.5, "unit": "mPa·s"}, {"measurement": "viscosity", "setting": "303.15 K, x2 = 0.2997", "result": 22.8, "unit": "mPa·s"}, {"measurement": "viscosity", "setting": "303.15 K, x2 = 0.4015", "result": 24.5, "unit": "mPa·s"}, {"measurement": "viscosity", "setting": "303.15 K, x2 = 0.4993", "result": 25.1, "unit": "mPa·s"}, {"measurement": "viscosity", "setting": "303.15 K, x2 = 0.6007", "result": 26.2, "unit": "mPa·s"}, {"measurement": "viscosity", "setting": "303.15 K, x2 = 0.7003", "result": 26.3, "unit": "mPa·s"}, {"measurement": "viscosity", "setting": "303.15 K, x2 = 0.7993", "result": 28.2, "unit": "mPa·s"}, {"measurement": "viscosity", "setting": "303.15 K, x2 = 0.9", "result": 32.8, "unit": "mPa·s"}, {"measurement": "viscosity", "setting": "308.15 K, x2 = 0.1", "result": 15.2, "unit": "mPa·s"}, {"measurement": "viscosity", "setting": "308.15 K, x2 = 0.2002", "result": 17.6, "unit": "mPa·s"}, {"measurement": "viscosity", "setting": "308.15 K, x2 = 0.4015", "result": 19.7, "unit": "mPa·s"}, {"measurement": "viscosity", "setting": "308.15 K, x2 = 0.4993", "result": 20.4, "unit": "mPa·s"}, {"measurement": "viscosity", "setting": "308.15 K, x2 = 0.6007", "result": 21.7, "unit": "mPa·s"}, {"measurement": "viscosity", "setting": "308.15 K, x2 = 0.7993", "result": 23.8, "unit": "mPa·s"}, {"measurement": "viscosity", "setting": "308.15 K, x2 = 0.9", "result": 27.3, "unit": "mPa·s"}, {"measurement": "viscosity", "setting": "313.15 K, x2 = 0.1", "result": 12.5, "unit": "mPa·s"}, {"measurement": "viscosity", "setting": "313.15 K, x2 = 0.2002", "result": 14.8, "unit": "mPa·s"}, {"measurement": "viscosity", "setting": "313.15 K, x2 = 0.4015", "result": 16.5, "unit": "mPa·s"}, {"measurement": "viscosity", "setting": "313.15 K, x2 = 0.4993", "result": 17.2, "unit": "mPa·s"}, {"measurement": "viscosity", "setting": "313.15 K, x2 = 0.6007", "result": 17.8, "unit": "mPa·s"}, {"measurement": "viscosity", "setting": "313.15 K, x2 = 0.7003", "result": 18.4, "unit": "mPa·s"}, {"measurement": "viscosity", "setting": "313.15 K, x2 = 0.7993", "result": 20.2, "unit": "mPa·s"}, {"measurement": "viscosity", "setting": "313.15 K, x2 = 0.9", "result": 23.1, "unit": "mPa·s"}, {"measurement": "viscosity", "setting": "318.15 K, x2 = 0.1", "result": 10.4, "unit": "mPa·s"}, {"measurement": "viscosity", "setting": "318.15 K, x2 = 0.2002", "result": 12.5, "unit": "mPa·s"}, {"measurement": "viscosity", "setting": "318.15 K, x2 = 0.4015", "result": 14.1, "unit": "mPa·s"}, {"measurement": "viscosity", "setting": "318.15 K, x2 = 0.4993", "result": 14.7, "unit": "mPa·s"}, {"measurement": "viscosity", "setting": "318.15 K, x2 = 0.6007", "result": 15, "unit": "mPa·s"}, {"measurement": "viscosity", "setting": "318.15 K, x2 = 0.7993", "result": 17.2, "unit": "mPa·s"}, {"measurement": "viscosity", "setting": "318.15 K, x2 = 0.9", "result": 19.7, "unit": "mPa·s"}, {"measurement": "viscosity", "setting": "323.15 K, x2 = 0.1", "result": 8.87, "unit": "mPa·s"}, {"measurement": "viscosity", "setting": "323.15 K, x2 = 0.2002", "result": 10.7, "unit": "mPa·s"}, {"measurement": "viscosity", "setting": "323.15 K, x2 = 0.4015", "result": 12.1, "unit": "mPa·s"}, {"measurement": "viscosity", "setting": "323.15 K, x2 = 0.4993", "result": 12.6, "unit": "mPa·s"}, {"measurement": "viscosity", "setting": "323.15 K, x2 = 0.6007", "result": 13, "unit": "mPa·s"}, {"measurement": "viscosity", "setting": "323.15 K, x2 = 0.7003", "result": 13.4, "unit": "mPa·s"}, {"measurement": "viscosity", "setting": "328.15 K, x2 = 0.1", "result": 7.66, "unit": "mPa·s"}, {"measurement": "viscosity", "setting": "328.15 K, x2 = 0.2002", "result": 9.27, "unit": "mPa·s"}, {"measurement": "viscosity", "setting": "328.15 K, x2 = 0.2997", "result": 9.9, "unit": "mPa·s"}, {"measurement": "viscosity", "setting": "328.15 K, x2 = 0.4993", "result": 10.9, "unit": "mPa·s"}, {"measurement": "viscosity", "setting": "328.15 K, x2 = 0.7003", "result": 11.6, "unit": "mPa·s"}, {"measurement": "viscosity", "setting": "328.15 K, x2 = 0.7993", "result": 12.9, "unit": "mPa·s"}, {"measurement": "viscosity", "setting": "333.15 K, x2 = 0.1", "result": 6.65, "unit": "mPa·s"}, {"measurement": "viscosity", "setting": "333.15 K, x2 = 0.2997", "result": 8.68, "unit": "mPa·s"}, {"measurement": "viscosity", "setting": "333.15 K, x2 = 0.4015", "result": 9.16, "unit": "mPa·s"}, {"measurement": "viscosity", "setting": "333.15 K, x2 = 0.4993", "result": 9.57, "unit": "mPa·s"}, {"measurement": "viscosity", "setting": "333.15 K, x2 = 0.6007", "result": 9.8, "unit": "mPa·s"}, {"measurement": "viscosity", "setting": "333.15 K, x2 = 0.7003", "result": 10.1, "unit": "mPa·s"}, {"measurement": "viscosity", "setting": "333.15 K, x2 = 0.9", "result": 12.9, "unit": "mPa·s"}, {"measurement": "viscosity", "setting": "338.15 K, x2 = 0.1", "result": 5.82, "unit": "mPa·s"}, {"measurement": "viscosity", "setting": "338.15 K, x2 = 0.2002", "result": 7.1, "unit": "mPa·s"}, {"measurement": "viscosity", "setting": "338.15 K, x2 = 0.2997", "result": 7.64, "unit": "mPa·s"}, {"measurement": "viscosity", "setting": "338.15 K, x2 = 0.4015", "result": 8.01, "unit": "mPa·s"}, {"measurement": "viscosity", "setting": "338.15 K, x2 = 0.4993", "result": 8.48, "unit": "mPa·s"}, {"measurement": "viscosity", "setting": "338.15 K, x2 = 0.6007", "result": 8.61, "unit": "mPa·s"}, {"measurement": "viscosity", "setting": "338.15 K, x2 = 0.7003", "result": 8.93, "unit": "mPa·s"}, {"measurement": "viscosity", "setting": "338.15 K, x2 = 0.9", "result": 11.4, "unit": "mPa·s"}]}
